Measurements from publication PMC12040169 (PLOS Biology, 2025).

Test: in vitro
Conditions: human, hela cells, % viability

| SMILES | viability at 28.5 h, 10 µM [%] |
| --- | --- |
| Cn1c(/N=C(\C=N\c2cc(=O)n(C)c(=O)n2C)c2ccccc2)cc(=O)n(C)c1=O [CBK303237] | 87.3 |
| CC(C)(C)OC(=O)N1CC2(C1)N=C1C=C(C(C)(C)C)ON1[C@H]1[C@H](O)[C@H](O)C[C@H]12 [CBK303240] | 97.6 |
| CCOC(=O)c1nc2c(n1C)[C@H]1[C@H](O)[C@H](O)C[C@H]1C1(CCC1)N2 [CBK303241] | 107 |
| CC(=O)[C@H]1CC[C@H]2[C@@H]3CC[C@H]4CC5(CC[C@]4(C)[C@H]3CC[C@]12C)N=C1C=C(C(C)(C)C)ON1C1C=CCC15 (stereo partly shown) [CBK303246] | 42.9 |
| Nc1nc(O)c2c(n1)NC1(CCC1)[C@@H]1C[C@@H](O)[C@@H](O)[C@H]21 [CBK303248] | 118 |
| COC(=O)c1csc2c1N[C@H](C1CC3C=CC1C3)[C@@H]1CCO[C@H]21 (stereo partly shown) [CBK303251] | 94.9 |
| CC(C)(C)C1=CC2=NC3(CCCCCC3)[C@@H]3C[C@@H](O)[C@@H](O)[C@@H]3N2O1 [CBK303252] | 91.9 |
| Cc1c2c(n(-c3ccccc3)[n+]1[O-])NC1(CCC1)[C@@H]1C[C@@H](O)[C@@H](O)[C@H]21 [CBK303253] | 91.5 |
| CC(C)(C)C1=CC2=NC3(CCCCCCCCCCC3)[C@@H]3C[C@@H](O)[C@@H](O)[C@@H]3N2O1 [CBK303254] | 113 |
| COC(=O)c1csc2c1NC1(CCC1)[C@@H]1C[C@@H](O)[C@@H](O)[C@H]21 [CBK303255] | 119 |
| CC(C)(C)C1=CC2=NC3(CCCCCCC3)[C@@H]3C[C@@H](O)[C@@H](O)[C@@H]3N2O1 [CBK303256] | 113 |
| CC1=CC2=NC3(CCC3)[C@@H]3C[C@@H](O)[C@@H](O)[C@@H]3N2O1 [CBK303257] | 92 |
| CC(C)(C)C1=CC2=NC3(CCC3)C3C[C@](O)(COCc4ccccc4)[C@@H](O)[C@@H]3N2O1 (stereo partly shown) [CBK303259] | 102 |
| CC(C)(C)C1=CC2=NC3(CCC3)C3C[C@@H](O)[C@@H](O)[C@]3(COCc3ccccc3)N2O1 (stereo partly shown) [CBK303260] | 99.6 |
| CC(C)(C)C1=CC2=NC3(CCC3)C3C[C@](O)(Cc4ccccc4)[C@@H](O)[C@@H]3N2O1 (stereo partly shown) [CBK303261] | 95.7 |
| CC(C)(C)C1=CC2=NC3(CCC3)C3C[C@](O)(CO)[C@@H](O)[C@@H]3N2O1 (stereo partly shown) [CBK303262] | 91.1 |
| Cn1c2c(c(=O)n(C)c1=O)[C@@H]1C(C[C@](O)(CO)[C@H]1O)C1(CCC1)N2 (stereo partly shown) [CBK303264] | 118 |
| CCC(=O)N1CCC(NCc2ccc(OCC(N)=O)cc2)C(C)C1 (stereo not shown) [CBK303989] | 77.6 |
| CC(C)(C)SCCOC(=O)C1CC(=O)N(Cc2ccccn2)C1 (stereo not shown) [CBK303991] | 90.8 |
| CCC1c2ccsc2CCN1CC(O)COCc1ccco1 (stereo not shown) [CBK303992] | 97.3 |
| COc1ccc2[nH]cc(C3CCN(Cc4cc(C)no4)CC3)c2c1 [CBK303996] | 91.5 |
| Cn1ccnc1CN1CCCN(C(=O)c2cccc(C#N)c2)CC1 [CBK303998] | 85.2 |

| SMILES | viability at 28.5 h, 10 µM [%] |
| --- | --- |
| Cc1nc(C)n(CC2CN(Cc3cn4ccccc4n3)CCO2)n1 (stereo not shown) [CBK303999] | 97.1 |
| Cc1nc(CCNCc2c(C(C)C)nn(C)c2N(C)C)cs1 [CBK304002] | 98.8 |
| Clc1ccc(CN2CCC(NCCCn3cccn3)CC2)cc1 [CBK304004] | 84.2 |
| Cc1nc(C)c(C(C)NCc2c(C(C)C)nn(C)c2N(C)C)s1 (stereo not shown) [CBK304005] | 74.3 |
| Cc1nc(C)n(CC2CCCCN2Cc2cn3ccccc3n2)n1 (stereo not shown) [CBK304008] | 111 |
| N#Cc1ccc(CN2CCCN(C(=O)c3cccc(F)c3)CC2)cc1 [CBK304010] | 96.2 |
| CC(=O)Nc1cccc(CN(CCCO)C2CCc3ccccc32)c1 (stereo not shown) [CBK304011] | 95 |
| c1ccc(C(NCc2cnc(-c3cnccn3)s2)C2CCC2)cc1 (stereo not shown) [CBK304016] | 106 |
| CC1CN(c2cc(CNCc3cnn4ccccc34)ccn2)CCO1 (stereo not shown) [CBK304018] | 84.1 |
| O=C1OCCN1CCN1CCCN(Cc2ccc(F)cc2)CC1 [CBK304023] | 103 |
| CNS(=O)(=O)c1ccc(C)c(C(=O)N(C)Cc2cnn(C)c2)c1 [CBK304026] | 89.1 |
| Cc1cccn2cc(CCNC(=O)CN(C)C3CCSC3)nc12 (stereo not shown) [CBK304027] | 84.6 |
| Cc1ccc(C#N)cc1S(=O)(=O)NC1CC(=O)c2ccccc21 (stereo not shown) [CBK304030] | 117 |
| CCN1CC(C(=O)N2CC(O)CC2c2cc(F)ccc2F)CC1=O (stereo not shown) [CBK304031] | 103 |
| CCN1CCC2CCC(C1)N2Cc1ccc(Oc2cnccn2)cc1 (stereo not shown) [CBK304034] | 95.7 |
| COCC(=O)N1CCN(Cc2cccc(-c3ccccn3)c2)CC1 [CBK304035] | 91.3 |
| CCCCc1noc(CN2CCCC2C(=O)NCc2ccco2)n1 (stereo not shown) [CBK304036] | 88 |
| Cc1nc(C)n(CC2CCCN(c3ncnc4ccsc34)C2)n1 (stereo not shown) [CBK304037] | 71.8 |
| Cc1ccc(C)c2c1CCCC2N1CCC(NS(C)(=O)=O)CC1 (stereo not shown) [CBK304038] | 103 |
| CCN(C(C)COC)S(=O)(=O)c1ccc(C(F)(F)F)nc1 (stereo not shown) [CBK304042] | 88.8 |
| c1cnn(C2CCCN(Cc3ccc(Oc4cnccn4)cc3)C2)c1 (stereo not shown) [CBK304043] | 96.9 |
| CCOC(=O)c1cnn(C2CCCN(Cc3ccc(C#N)o3)C2)c1 (stereo not shown) [CBK304045] | 116 |

| SMILES | viability at 28.5 h, 10 µM [%] |
| --- | --- |
| CCOC(=O)c1cnn(C2CCCN(Cc3cccc(O)c3)C2)c1 (stereo not shown) [CBK304046] | 100 |
| CCONC(=O)c1cc(-c2ccccc2C)nc2c1cnn2C(C)C [CBK304048] | 95.5 |
| COCCn1c(SCc2cn3c(C)cccc3n2)nc(C)c1C [CBK304050] | 83.9 |
| Cc1cc(N2CCN(C(=O)c3ccsc3)CC2)nc(C(C)C)n1 [CBK304053] | 102 |
| Cc1nc(CCNCc2c(C)nn(C)c2N2CCOCC2)cs1 [CBK304054] | 101 |
| N#Cc1ccc(NCc2ccccc2CN2CCCC2CO)nc1 (stereo not shown) [CBK304055] | 95.8 |
| Cc1c(CNCCN2CCN(C)CC2c2ccccc2)cnn1C (stereo not shown) [CBK304056] | 98.8 |
| Cc1cccc(CCNC(=O)N2CCN(Cc3ccccn3)CC2)c1 [CBK304057] | 103 |
| CCOC(=O)c1cnn(C2CCCN(Cc3c(C)n[nH]c3C)C2)c1 (stereo not shown) [CBK304059] | 88.6 |
| COCn1nccc1S(=O)(=O)NCCc1cn2ccccc2n1 [CBK304060] | 80.6 |
| CCOc1ccc(CC(=O)Nc2ncccc2OCCCC#N)cc1 [CBK304062] | 90.3 |
| O=C(Nc1cccc(F)c1)N(Cc1cccnc1)CC1CCCO1 (stereo not shown) [CBK304065] | 109 |
| CC(=O)Nc1cccc(C(=O)N2CCN(Cc3ccccn3)CC2)c1 [CBK304067] | 86.3 |
| Cc1cccc(N2CCN(C(=O)CCc3ccsc3)C(C)C2)n1 (stereo not shown) [CBK304069] | 96.6 |
| Cc1ccc(CC2CCCN2CC(=O)NCc2ccccn2)cc1 (stereo not shown) [CBK304070] | 96.6 |
| Cc1c(C(=O)N2CCC[C@@H]2CO)nnn1Cc1ccc(F)cc1F [CBK304071] | 89.2 |
| COC(=O)c1cccc2c1CCCN2Cc1nnc(C2CCC2)o1 [CBK304072] | 105 |
| Cc1cc(S(=O)(=O)N2CCN(CCO)C(C)C2)sc1Cl (stereo not shown) [CBK304074] | 91.4 |
| CCCCNc1cc(N2CCN(C(=O)COC)CC2)nc(N)n1 [CBK304078] | 98.8 |
| Cc1cccc(OCCN2C(=O)CC(Cc3cnn(C)c3)C2=O)c1 (stereo not shown) [CBK304081] | 99.7 |
| CCc1nc(CC(=O)N2CCOC(c3ccc(F)cc3)C2)cs1 (stereo not shown) [CBK304083] | 87 |
| Cc1nonc1CNC(=O)N1CCOCC(C2CCC2)C1 (stereo not shown) [CBK304086] | 97.4 |

| SMILES | viability at 28.5 h, 10 µM [%] |
| --- | --- |
| Cc1cc(C)n(CCCNC(=O)N2CCC(c3nccs3)CC2)n1 [CBK304088] | 91.9 |
| CCc1ccc2c(c1)C(CCNC(=O)c1c(C)noc1C(F)F)C(=O)N2 (stereo not shown) [CBK304090] | 95.1 |
| COCCc1noc(CC2CCN(c3cc(C)ncc3C#N)CC2)n1 [CBK304092] | 90.4 |
| Cc1cc(CS(=O)(=O)N2CCOCC2c2cccc(F)c2)no1 (stereo not shown) [CBK304093] | 95.4 |
| Cc1cc(O)nc(C(C)N2CCOC(C(C)(C)C)C2)n1 (stereo not shown) [CBK304097] | 104 |
| Cc1nnnn1-c1cc(NC(=O)NCCCc2nc[nH]n2)ccc1F [CBK304102] | 87.7 |
| Cc1c(C(=O)N(C)Cc2csc3ccccc23)nnn1C1CCNCC1 [CBK304103] | 84.6 |
| CC(=O)Nc1ccc(CN(CCO)C2CCc3ccccc32)cc1 (stereo not shown) [CBK304104] | 93.2 |
| CC(N)C1CCCN(S(=O)(=O)c2ccc(OCc3ncnn3C)cc2)C1 (stereo not shown) [CBK304105] | 114 |
| CN(C)CC1CN(C(=O)Nc2ncc(Cc3ccccc3Cl)s2)CCO1 (stereo not shown) [CBK304107] | 93.6 |
| CN(CCc1cccnc1)CC(=O)Nc1cccc(Cl)c1 [CBK304108] | 93.1 |
| Cc1ccc(-n2nnc(C(=O)N3CCCCC3C(=O)O)c2C)cc1 (stereo not shown) [CBK304109] | 87.7 |
| COc1ncccc1-c1csc(C2CN3CCCC3CO2)n1 (stereo not shown) [CBK304110] | 83.5 |
| CS(=O)(=O)CCS(=O)(=O)N1CCOCC1c1cccc(F)c1 (stereo not shown) [CBK304111] | 84.2 |
| Cc1ccc(-c2csc(C3CN4CCCC4CO3)n2)s1 (stereo not shown) [CBK304113] | 121 |
| CC(C)CCn1cc(C(=O)N2CCNCC2c2cccc(Cl)c2)nn1 (stereo not shown) [CBK304115] | 91.4 |
| COc1ncccc1-c1csc(N2CCOC(C)C2)n1 (stereo not shown) [CBK304118] | 81.8 |
| Cc1ccc(Cc2cnc(NC(=O)N3CCC(O)C(F)(F)C3)s2)cc1C (stereo not shown) [CBK304120] | 94.7 |
| CCCc1nc(CN2CCNC(=O)C2c2ccccc2C(F)(F)F)no1 (stereo not shown) [CBK304123] | 93.2 |
| Cc1nsc(NCc2ccccc2CN2CCCC2CO)c1C#N (stereo not shown) [CBK304124] | 88.8 |
| COc1ccc(Br)cc1C1CCCN1C(=O)Cc1cnccc1C (stereo not shown) [CBK304130] | 93.7 |
| CCCC1(C)CCCN(Cc2nnnn2-c2ccc(S(C)(=O)=O)cc2)C1 (stereo not shown) [CBK304133] | 79.8 |
